The test system of one data set is dysplastic mastodynia. The note with it: women with dysplastic mastodynia; cited from earlier work.
The subject of data set [1] is mammary tissue. As to the kind of experiment: Histologic grading of mammary tissue in iodine deficient rats, 4 weeks (Example 12). It counts as in vivo, Female Sprague-Dawley rats. The note with it: for Fibroadenomata / Lobular hyperplasia / Periductal fibrosis / Secretion: 4 weeks. As for the experimental part: Rats were dosed with molecular iodine once daily. Food was removed from the rats each morning and ten hours later, each rat was dosed with one of three concentrations 0.0010, 0.010 or 0.10 mg/kg of molecular iodine. A dose of iodide (100 ug/kg) was given to a control group of rats. The negative control consisted of rats which were dosed with tap water. At the end of 4 weeks rats were sacrificed and microscopic sections of the mammary gland tissues were stained with hematoxylin and eosin prior to being read by a pathologist.
Six groups of animals were examined: groups 1-3 received daily doses of one of three concentrations of molecular iodine; (4) received the normal diet without perchlorate treatment; (5) received the iodine deficient diet with a water gavage; and (6) received an iodine deficient diet and were dosed with iodide (100 ug/kg). […] The results of this histological grading are shown below in tabular form.

The next data set deals with mammary glands. As to conditions: compared with iodide; cited from earlier work.
Data set [2] deals with thyroid. The note with it: male rats, cited from earlier work.
Another data set concerns thyroid hormones. The note with it: repeated daily doses; no increase below; cited from earlier work.
The conditions of data set [3]: function of pH; cited from earlier work.
Data set [4] deals with thyroid. As to the kind of experiment: Thyroid weight of rats after subchronic oral administration (Sherer et al., cited). As to conditions: compared with molecular iodine. In kind it is in vivo, male rats. As for the experimental part:
The only scientific studies on the relative oral toxicity of molecular iodine and iodide was performed during the early 1990s (Karla Thrall, Ph.D. Thesis, "Formation of Organic By-Products Following Consumption of Iodine Disinfected Drinking Water", Summary and Conclusion Section, Oregon State University, Department of Chemistry, 1992). The weight of a mammals thyroid is one key diagnostic measure used to evaluate the toxicity of an iodine composition. […] Another way to state this is that it required ten time more molecular iodine than iodide to effect animal thyroid function with an orally administered iodine composition.

Data set [5] relates to mammary tissue. The data set can be described thus: Histologic grading of mammary tissue in iodine deficient rats, 2 week study (Example 8). In kind it is in vivo, Female Sprague-Dawley rats. Here is the method:
Perchlorate-treated (400 mg/dL NaClO4) municipal tap water was provided ad libitum for the first five days of captivity. […] Each day for the five days preceding the initiation of testing, animals received estrogen (25 ug of 17-βestradiol) suspended in 100 ul of sesame oil injected IM. During the 2 week experiment estrogen (2.5 ug 17-βestradiol) suspended in 100 ul of sesame oil was injected daily. Vaginal smears were taken every other day to insure that rats achieved constant estrus throughout the experiment.
Rats were dosed with molecular iodine once daily. Food was removed from the rats each morning and ten hours later, each rat was dosed with 80 ug/kg of molecular iodine. An equivalent dose of iodide (80 ug/kg) was given to a control group of rats. The negative control consisted of rats which were dosed with tap water. Rats were weighed daily. At the end of the 2 week study rats were sacrificed and microscopic sections of the mammary gland tissues were stained with hematoxylin and eosin prior to being read by a pathologist.
Each group contained 10 animals.
The mammary tissue was graded for lobular hyperplasia, secretions, periductal fibrosis, and fibroadenomatous changes. The scoring system for lobular hyperplasia, secretions, periductal fibrosis graded as positive only those animals showing moderate to severe conditions. […] The results of this histological grading are shown below in tabular form.

A further data set concerns human. The note with it: human oral consumption; cited from earlier work.
Data set [6] in a line: Body weight of iodine deficient rats, 2 week study (Example 8). The note with it: in g (unit assumed).

The source of these data is patent publication US5885592A, “Methods and pharmaceutical compositions for oral delivery of molecular iodine” (priority 1997, dated 1999).

On to `II` [iodine], for which the improvement rate in the data set on dysplastic mastodynia is given as 71%.
In the case of `II` [molecular iodine], in the data set on mammary tissue [1] (1 ug/kg daily), the “formation of fibroadenomata and periductal fibrosis (in words)” value is “did not substantially alleviate the formation of fibroadenomata and periductal fibrosis”; the Fibroadenomata is 4/10; the Lobular hyperplasia was 4.10; the Periductal fibrosis is 6/10. Moreover, in the data set on mammary tissue [1] (1 ug/kg daily), the Secretion is on record as 6/10. In the data set with mammary tissue [1] (10 ug/kg daily), the Fibroadenomata is reported as 1/10, the Lobular hyperplasia was 2/10, the Periductal fibrosis is 4/10 and the Secretion is given as 4/10. Moreover, in the data set with mammary tissue [1] (100 ug/kg daily), the Fibroadenomata is 1/10, the Lobular hyperplasia is recorded as 2/10, the Periductal fibrosis is given as 2/10 and the Secretion was 3/10. In addition, the “formation of fibroadenomata and periductal fibrosis (in words)” value with mammary tissue [1] (10 and 100 ug/kg daily) was “substantially reduced the formation of fibroadenomata and periductal fibrosis”. Moreover, in the data set with mammary glands, the “diminishing ductal hyperplasia and perilobular fibrosis in the mammary glands” value was “distinctly more effective in diminishing ductal hyperplasia and perilobular fibrosis in the mammary glands than iodide”. Also, in the data set on thyroid [2] (no effect up to this dose, oral), the “did not effect thyroid weight even at concentrations of” value was 100 mg/kg. The “dose at which an increase in steady state levels of thyroid hormones was measured” value in the data set with thyroid hormones is 10 mg per kilogram of body weight. The stability in water result in data set [3] is “unstable in water”.
On to `I` [iodide], for which the “concentration affecting thyroid weight relative to molecular iodine (fold less)” value with thyroid [4] was 10 fold. Further, in the data set with mammary tissue [5] (80 ug/kg daily gavage, 2 weeks), the Fibroadenomata is recorded as 4/10; the “secretion and fibroadenomata (result in words)” value is “displayed increased secretion and fibroadenomata”. In the data set with mammary tissue [5] (po, 0.08 mg/kg, 336 h), the Lobular hyperplasia is reported as 4/10, the Periductal fibrosis is recorded as 6/10 and the Secretion is given as 4/10. Further, in the data set with mammary tissue [1] (100 ug/kg daily), the Fibroadenomata is on record as 3/10, the Lobular hyperplasia is listed as 4/10, the Periductal fibrosis was 5/10 and the Secretion is recorded as 5/10. Further, in the data set with mammary tissue [1] (iodide 100 ug/kg daily), the “formation of fibroadenomata (in words)” value is recorded as “did not substantially alleviate the formation of fibroadenomata”. For the same molecule, in the data set with human, the “range of human consumption above which there is a health risk” value is on record as 0.150 to 1.0 mg/day. In addition, in the data set with thyroid [2] (subchronic oral administration), the “increased thyroid weight, dose” value is 10 mg/kg. In [6] (80 ug/kg daily, end of 2 weeks), the “average body weight at end” value is given as 235±7.1. In addition, the “average body weight at start” value in [6] (80 ug/kg, start) is 214±6.5.
